From paper PMC9068610, “Biliverdin regulates NR2E3 and zebrafish retinal photoreceptor development” (Scientific Reports, 2022)
Positions count from the first letter of the chain named.

How the values were obtained:
Assay type in all cases: binding
[1] = biological target: T1, NR2E3 (Homo sapiens, UniProt Q9Y5X4, R311Q); assay: visible absorbance titration
T1 construct: MBP-NR2E3 LBD R311Q variant
T1 sequence (Q9Y5X4 164-410 R311Q): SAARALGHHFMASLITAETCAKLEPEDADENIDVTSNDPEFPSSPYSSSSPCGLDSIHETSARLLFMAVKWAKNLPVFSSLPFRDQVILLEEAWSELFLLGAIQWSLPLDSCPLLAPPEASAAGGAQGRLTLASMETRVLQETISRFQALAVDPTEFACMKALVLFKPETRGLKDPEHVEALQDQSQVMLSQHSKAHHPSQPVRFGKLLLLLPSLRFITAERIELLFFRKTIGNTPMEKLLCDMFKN

[2] = biological target: T2, NR2E3 (Homo sapiens, UniProt Q9Y5X4); assay: visible absorbance titration; also gel filtration co-purification with LC-MS
T2 construct: MBP-NR2E3 LBD (amino acid residues 164–410 of 410 residue NR2E3)
T2 sequence (Q9Y5X4 164-410): T1 sequence (Q9Y5X4 164-410 R311Q) with Q148R

[3] = biological target: T3, zebrafish NR2E3 (Danio rerio, UniProt Q5U3F3); assay: visible absorbance titration
T3 construct: MBP-DrNR2E3 LBD
T3 sequence (Q5U3F3 178-419 limits assumed): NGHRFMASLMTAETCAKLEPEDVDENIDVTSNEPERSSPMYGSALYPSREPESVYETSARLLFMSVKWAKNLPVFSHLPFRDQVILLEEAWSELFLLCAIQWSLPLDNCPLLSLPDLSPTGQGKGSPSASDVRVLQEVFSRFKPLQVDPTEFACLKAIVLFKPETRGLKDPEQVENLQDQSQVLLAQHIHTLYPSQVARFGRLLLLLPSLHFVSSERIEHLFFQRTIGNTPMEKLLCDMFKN

Q: How did the Kd [1] turn out when `C=CC1=C(C)/C(=C/C2=NC(=C\c3[nH]c(/C=C4\NC(=O)C(C)=C4C=C)c(C)c3CCC(=O)O)/C(CCC(=O)O)=C2C)NC1=O` [biliverdin] was run?
A: 9 µM

Q: What about the Kd [2] of the same compound?
A: 0.2 µM

Q: And the visible absorbance titration [3]?
A: the spectrum of biliverdin showed changes similar to the one observed with human NR2E3^LBD
